# Source: US9045474B2, “Compounds and compositions for mitigating tissue damage and lethality” (The Regents of the University of California, priority 2010, dated 2015)
# Several values for one entry are separate records, joined by “and”; a condition that tells them apart may be missing. Equal values may be shown once. Entries after “also recorded” stand apart in the source; their conditions may differ.
# Experiments:
# [1] = system: RS112 strain of S. cerevisiae; test: Classical DEL plating assay, radioprotection at 2000Gy irradiation; type: cell-based, Saccharomyces cerevisiae
# Procedure: All DEL assays utilize the established methodology of “recombination” (deletion of the interruption segment and consequent end joining of the adjacent sequences) of a disrupted histidine gene that renders yeast cells exposed to radiation capable of growing on media lacking this amino acid. In the classical DEL assay radiation sensitive RS112 strain of S. cerevisiae is added to the compounds of interest suspended in complete media, incubated for 2 hrs, and irradiated at 2000Gy. The cells are then plated onto full (+13) and lacking histidine (−His) agar plates. After incubation the colonies are scored and recombination events are calculated. The efficacy of the compound is evaluated as a reduced fraction of DEL recombinations in comparison to that of irradiated controls without treatment. Radioprotectors decrease the frequency of such recombination frequencies after radiation exposure.
# A plasmid with an internal fragment of the HIS3 gene, which is responsible for histidine synthesis in yeast, without which cells cannot survive in media lacking histidine, has been integrated at the HIS3 locus, yielding an integrative disruption of the HIS3 gene (Schiestl, R. H., et al., Genetics, 1988. 119(2): p. 237-47). […]
# C3H mice [2] = test: Radioprotection experiments in C3H mice (8Gy, compound before exposure); type: in vivo, mouse; settings: 8Gy (LD100/30), 75 mg/kg
# Source text: Only the results for Compound 4 are significant at Day 14 post irradiation. Irradiated controls died on Day 13 while most of the treated mice survived to Day 18, and mice in group 4 and 1 have survived to Day 24. The limitation of this study was the number of mice in each group due to the small quantities of the commercially available compounds.
# C3H mice [3] = test: Mitigation of radiation-induced lethality in C3H mice (8Gy, LD100/30)
# Procedure: Radiomitigation studies were conduced by pre-treating C3H mice with the compounds of interest at as concentration of 75 mg/kg and at 24 hrs and 1 hr before an 8 Gy exposure. On a 5×24 mitigation treatment protocol mice were first lethally irradiated with 8 Gy and 24 hrs later received the first subcutaneous injection with the compound suspension with subsequent injections at 48, 72, 96, and 120 hrs. The concentration of the compound in the suspension was 75 mg/kg carrier with either 1N saline or phosphate buffer solution (PBS).
# C3H mice in the mitigation experiment were irradiated with 8Gy and then injected with 75 mg/kg 1 hr post exposure and then again 25 hrs post exposure.
# [4] = system: primary human keratinocytes; test: Senescence of primary keratinocytes in co-culture; type: cell-based
smiles,measurement,setting,value
COc1ccc2cc(-c3nc4ccc(C)cn4c3NCc3ccco3)c(=O)[nH]c2c1 [Yel002],radioprotector characteristics (genotoxicity and cytotoxicity protection),[1],radioprotector characteristics
same,survival versus 8 Gy control group,C3H mice [2]; listed as 5,noticeable difference in survival
same,survival versus 8 Gy control group,C3H mice [2]; listed as Compound 5,increase in survival
same,mitigation efficacy,"C3H mice [3]; 8Gy, 75 mg/kg 1.25 protocol",show activity
same,mice survived LD100/30 irradiation,"C3H mice [3]; 8Gy, 75 mg/kg at 1 hr and 25 hrs post exposure, past 30 days, first small study",67%
same,survival at 30 days,"C3H mice [3]; 8Gy, 75 mg/kg s.c. at 24, 48, 72, 96, 120 hrs (5×24)",100% and 75%
same,survival at 30 days,"C3H mice [3]; 8Gy, 75 mg/kg s.c. at 24, 48, 72, 96, 120 hrs (5×24), listed as Yel2",100%
same,survival at 30 days,"C3H mice [3]; 8Gy, 75 mg/kg s.c. at 1 hr and 25 hrs (1.25 schedule)",88%
same,percentage of survivors,"C3H mice [3]; 8Gy, both protocols, 252 days post irradiation",40%
same,animals still alive beyond 30 day window,"C3H mice [3]; 8Gy, both protocols, +292 days",40%
same,"survival, oral (gavage) administration","C3H mice [3]; 8Gy, oral gavage in saline, 5×24 schedule",33%
same,dose modifying factor (DMF),"C3H mice [3]; at LD50/30, 7Gy to 9.1 Gy, 75 mg/kg 5×24 s.c.",1.15
same,doubling time of the cells,[4],extended the doubling time
same,progression into senescence,[4]; 5 uM,decreased progression of cells into senescence; also recorded: decreases the progression into senescence
